Measured values reported in patent US10544143B2, “4-azaindole compounds” (BRISTOL-MYERS SQUIBB COMPANY, priority 2017, dated 2020).

Columns and labels:
human TLR8 = human TLR8 (Homo sapiens (Human), UniProt Q9NR97); assay: TLR8 inhibition reporter assay (HEK-Blue SEAP); details: read-out: TLR8 IC50; HEK-Blue cells overexpressing human TLR8, SEAP reporter, R848 15.9 μM;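 also: SEAP driven by IFN-β minimal promoter carrying NF-κB and AP-1 sites, compounds dosed 0.05 nM to 50 µM for 22 h, inhibition scaled between agonist-plus-DMSO and reference-inhibitor wells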
human TLR7 = human TLR7 (Homo sapiens (Human), UniProt Q9NYK1); assay: TLR7 inhibition reporter assay (HEK-Blue SEAP); assay type: cell-based; details: HEK-Blue cells overexpressing human TLR7, SEAP reporter, gardiquimod 7.5 μM
human TLR9 = human TLR9 (Homo sapiens (Human), UniProt Q9NR96); assay: TLR9 inhibition reporter assay (HEK-Blue SEAP); details: read-out: TLR9 IC50; HEK-Blue cells overexpressing human TLR9, SEAP reporter, ODN2006 5 nM;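 also: SEAP driven by an IFN-β minimal promoter with NF-κB and AP-1 sites, read after 22 h, compounds dosed 0.05 nM–50 µM, inhibition scaled between agonist plus DMSO and reference-inhibitor wells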
human TLR9, sequence (Q9NR96 26-1032): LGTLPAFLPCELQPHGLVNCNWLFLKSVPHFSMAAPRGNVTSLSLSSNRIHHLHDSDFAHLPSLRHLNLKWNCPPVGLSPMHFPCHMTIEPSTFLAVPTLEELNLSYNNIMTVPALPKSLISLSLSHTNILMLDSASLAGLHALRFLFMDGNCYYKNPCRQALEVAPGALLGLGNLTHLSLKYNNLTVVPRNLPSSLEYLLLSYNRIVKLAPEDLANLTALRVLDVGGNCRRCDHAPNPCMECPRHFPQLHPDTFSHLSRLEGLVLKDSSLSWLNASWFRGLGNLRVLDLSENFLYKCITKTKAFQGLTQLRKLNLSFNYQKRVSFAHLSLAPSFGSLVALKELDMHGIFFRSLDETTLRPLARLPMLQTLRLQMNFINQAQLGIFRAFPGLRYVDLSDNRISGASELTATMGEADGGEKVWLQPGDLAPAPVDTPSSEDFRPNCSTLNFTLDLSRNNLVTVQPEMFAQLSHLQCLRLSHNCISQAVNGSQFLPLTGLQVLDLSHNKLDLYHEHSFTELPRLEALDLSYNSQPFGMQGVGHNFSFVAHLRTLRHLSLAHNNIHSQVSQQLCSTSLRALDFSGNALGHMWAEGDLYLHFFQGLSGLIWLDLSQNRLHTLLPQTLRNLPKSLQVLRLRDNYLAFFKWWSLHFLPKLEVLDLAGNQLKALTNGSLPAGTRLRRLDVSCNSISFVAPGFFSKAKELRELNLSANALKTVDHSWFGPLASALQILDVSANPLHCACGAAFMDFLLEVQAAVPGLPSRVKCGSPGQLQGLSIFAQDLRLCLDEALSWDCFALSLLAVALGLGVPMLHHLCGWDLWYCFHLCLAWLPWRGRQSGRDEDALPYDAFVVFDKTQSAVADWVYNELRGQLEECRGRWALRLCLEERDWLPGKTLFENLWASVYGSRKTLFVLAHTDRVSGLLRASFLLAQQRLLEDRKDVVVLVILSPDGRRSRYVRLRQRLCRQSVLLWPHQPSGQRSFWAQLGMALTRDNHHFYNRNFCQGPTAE

human TLR8, sequence (Q9NR97 27-1041): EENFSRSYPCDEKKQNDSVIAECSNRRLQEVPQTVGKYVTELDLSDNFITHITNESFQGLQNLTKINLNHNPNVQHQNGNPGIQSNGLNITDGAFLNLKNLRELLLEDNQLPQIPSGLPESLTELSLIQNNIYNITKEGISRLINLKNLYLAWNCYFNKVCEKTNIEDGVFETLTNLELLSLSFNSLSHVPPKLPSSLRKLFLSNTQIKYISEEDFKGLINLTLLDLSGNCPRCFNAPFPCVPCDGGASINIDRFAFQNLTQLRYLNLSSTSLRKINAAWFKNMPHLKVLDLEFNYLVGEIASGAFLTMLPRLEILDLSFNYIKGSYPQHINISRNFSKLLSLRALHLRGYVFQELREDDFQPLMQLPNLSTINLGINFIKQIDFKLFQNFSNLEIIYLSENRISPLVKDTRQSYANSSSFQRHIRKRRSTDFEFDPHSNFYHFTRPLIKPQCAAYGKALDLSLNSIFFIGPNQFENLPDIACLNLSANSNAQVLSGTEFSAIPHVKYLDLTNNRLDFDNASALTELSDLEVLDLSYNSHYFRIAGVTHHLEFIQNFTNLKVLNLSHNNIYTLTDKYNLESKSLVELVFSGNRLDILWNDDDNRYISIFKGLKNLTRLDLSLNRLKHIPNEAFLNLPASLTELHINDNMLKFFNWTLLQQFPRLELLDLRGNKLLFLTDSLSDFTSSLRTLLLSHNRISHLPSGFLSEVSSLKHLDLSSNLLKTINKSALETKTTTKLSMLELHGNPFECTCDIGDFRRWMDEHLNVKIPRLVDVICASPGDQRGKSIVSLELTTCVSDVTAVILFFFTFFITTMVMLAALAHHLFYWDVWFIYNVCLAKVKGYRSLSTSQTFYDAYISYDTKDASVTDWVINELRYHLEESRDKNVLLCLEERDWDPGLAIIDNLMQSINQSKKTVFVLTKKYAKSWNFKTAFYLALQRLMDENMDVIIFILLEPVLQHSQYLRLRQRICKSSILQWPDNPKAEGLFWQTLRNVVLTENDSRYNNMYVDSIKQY
human TLR7, sequence (Q9NYK1 27-1049): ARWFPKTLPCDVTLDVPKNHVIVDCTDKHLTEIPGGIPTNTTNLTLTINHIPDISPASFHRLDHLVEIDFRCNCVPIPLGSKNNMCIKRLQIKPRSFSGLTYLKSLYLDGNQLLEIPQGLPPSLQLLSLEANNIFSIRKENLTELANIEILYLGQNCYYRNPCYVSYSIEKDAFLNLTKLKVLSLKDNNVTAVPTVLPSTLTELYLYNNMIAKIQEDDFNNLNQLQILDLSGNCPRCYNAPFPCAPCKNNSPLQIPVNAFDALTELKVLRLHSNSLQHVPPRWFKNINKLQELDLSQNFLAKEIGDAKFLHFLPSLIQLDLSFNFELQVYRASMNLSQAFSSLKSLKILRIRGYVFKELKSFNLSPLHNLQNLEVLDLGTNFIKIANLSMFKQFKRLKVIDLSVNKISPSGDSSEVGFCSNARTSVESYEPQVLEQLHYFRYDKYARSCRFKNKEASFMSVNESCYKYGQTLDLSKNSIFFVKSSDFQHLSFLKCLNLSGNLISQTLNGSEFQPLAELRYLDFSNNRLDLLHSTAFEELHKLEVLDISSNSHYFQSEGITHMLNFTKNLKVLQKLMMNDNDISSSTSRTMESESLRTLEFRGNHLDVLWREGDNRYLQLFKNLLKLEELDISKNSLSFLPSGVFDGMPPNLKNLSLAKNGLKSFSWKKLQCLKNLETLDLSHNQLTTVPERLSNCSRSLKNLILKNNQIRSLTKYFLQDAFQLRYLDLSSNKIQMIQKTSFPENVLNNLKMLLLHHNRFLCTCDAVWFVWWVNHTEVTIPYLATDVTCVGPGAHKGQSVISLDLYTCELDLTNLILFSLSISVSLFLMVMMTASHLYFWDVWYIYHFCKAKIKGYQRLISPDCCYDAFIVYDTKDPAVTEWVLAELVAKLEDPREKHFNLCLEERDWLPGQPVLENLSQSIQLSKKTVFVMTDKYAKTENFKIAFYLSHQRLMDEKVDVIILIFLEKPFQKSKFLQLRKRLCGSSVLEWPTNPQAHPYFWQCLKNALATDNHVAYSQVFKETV

Row | SMILES | IC50 (human TLR8) | IC50 (human TLR7) | IC50 (human TLR9)
1 | CC(C)c1c(-c2cn(C)c3ncccc23)[nH]c2ccc(CCC3CN(Cc4c[nH]nn4)C3)nc12 [Example 704] | 13 nM | 11 nM | 166 nM
2 | Cc1c(-c2[nH]c3ccc(CCC4CN(Cc5c[nH]nn5)C4)nc3c2C(C)C)cn2ncnc2c1C [Example 705] | 15 nM | 18 nM | 655 nM
3 | COc1cc(-c2[nH]c3ccc(CCC4CN(CC5(C)COC5)C4)nc3c2C(C)C)cn2ncnc12 [Example 706] | 18 nM | 8.5 nM | 1020 nM
4 | COc1cc(-c2[nH]c3ccc(C4CCC(NC5CCOCC5)C4)nc3c2C(C)C)cn2ncnc12 (stereo not drawn) [Example 707] | 5.3 nM | 1.5 nM | 1410 nM
5 | COc1cc(-c2[nH]c3ccc(C4CCC(N(CC(N)=O)CC(N)=O)C4)nc3c2C(C)C)cn2ncnc12 (stereo not drawn) [Example 708] | 280 nM | 12 nM | > 50000 nM
6 | COc1cc(-c2[nH]c3ccc(C4CCC(NCCS(C)(=O)=O)C4)nc3c2C(C)C)cn2ncnc12 (stereo not drawn) [Example 709] | > 3120 nM | 2330 nM | > 50000 nM
7 | COc1cc(-c2[nH]c3ccc(C4CCC(NC(=O)CN(C)C)C4)nc3c2C(C)C)cn2ncnc12 (stereo not drawn) [Example 712] | 11 nM | 1.9 nM | 3140 nM
8 | COc1cc(-c2[nH]c3ccc(C4CCC(N(CC#N)CC#N)C4)nc3c2C(C)C)cn2ncnc12 (stereo not drawn) [Example 713] | 28 nM | 6.2 nM | 4880 nM
9 | COc1cc(-c2[nH]c3ccc(C4CCC(NC(=O)C5CCN(C)CC5)C4)nc3c2C(C)C)cn2ncnc12 (stereo not drawn) [Example 714] | 9.3 nM | 1.8 nM | 203 nM
10 | COc1cc(-c2[nH]c3ccc(C4CCC(NC5COC5)C4)nc3c2C(C)C)cn2ncnc12 (stereo not drawn) [Example 715] | 11 nM | 1.7 nM | 8710 nM
11 | COc1cc(-c2[nH]c3ccc(C4CCC(NCC#N)C4)nc3c2C(C)C)cn2ncnc12 (stereo not drawn) [Example 716] | 6.7 nM | 0.74 nM | 2530 nM
12 | COc1cc(-c2[nH]c3ccc(C4CCC(N(CCS(C)(=O)=O)CCS(C)(=O)=O)C4)nc3c2C(C)C)cn2ncnc12 (stereo not drawn) [Example 717] | 1100 nM | 1060 nM | 2520 nM
13 | CNC(=O)CNC1CCC(c2ccc3[nH]c(-c4cc(OC)c5ncnn5c4)c(C(C)C)c3n2)C1 (stereo not drawn) [Example 719] | 7 nM | 2.8 nM | 2600 nM
14 | COc1cc(-c2[nH]c3ccc(C4CCC(N(CC(N)=O)CC(N)=O)C4)nc3c2C(C)C)cn2ncnc12 (stereo not drawn) [Example 720] | 94 nM | 13 nM | 20300 nM
15 | COc1cc(-c2[nH]c3ccc(C4CCC(N(CC(=O)N(C)C)CC(=O)N(C)C)C4)nc3c2C(C)C)cn2ncnc12 (stereo not drawn) [Example 722] | 46 nM | 6.5 nM | 18500 nM
16 | COc1cc(-c2[nH]c3ccc(C4CCC(N(CCS(C)(=O)=O)CCS(C)(=O)=O)C4)nc3c2C(C)C)cn2ncnc12 (stereo not drawn) [Example 726] | 2090 nM | 1360 nM | 39400 nM
17 | COc1cc(-c2[nH]c3ccc(C4CCC(N(CC#N)CC#N)C4)nc3c2C(C)C)cn2ncnc12 (stereo not drawn) [Example 730] | 23 nM | 3.3 nM | 10500 nM
18 | COc1cc(-c2[nH]c3cc(C)c(C(=O)NC4CCN(C(C)C)CC4)nc3c2C(C)C)cn2ncnc12 [Example 731] | 15 nM | 4.6 nM | 1640 nM
19 | COc1cc(-c2[nH]c3cc(C)c(C(=O)N(C)CCN(C)C)nc3c2C(C)C)cn2ncnc12 [Example 732] | 70 nM | 10 nM | 4830 nM
20 | COc1cc(-c2[nH]c3cc(C)c(C(=O)N4CCN(C(C)=O)CC4)nc3c2C(C)C)cn2ncnc12 [Example 733] | 1010 nM | 53 nM | > 50000 nM
21 | COc1cc(-c2[nH]c3cc(C)c(C(=O)N(C)CCC(F)(F)F)nc3c2C(C)C)cn2ncnc12 [Example 734] | 252 nM | 26 nM | > 50000 nM
22 | Cc1cc(-c2[nH]c3ccc(-c4cnn(C5CCNCC5)c4)nc3c2C(C)C)cn2ncnc12 [Example 735] | 61 nM | 25 nM | 262 nM
23 | Cc1cc(-c2[nH]c3ccc(-c4cnn(CCN5CCOCC5)c4)nc3c2C(C)C)cn2ncnc12 [Example 736] | 269 nM | 631 nM | > 50000 nM
24 | Cc1c(-c2[nH]c3ccc(N4CC5(CN(C)C5)C4)nc3c2C(C)C)cn2ncnc2c1C [Example 741, 6-(3-isopropyl-5-(6-methyl-2,6-diazaspiro[3.3]heptan-2-yl)-1H-pyrrolo[3,2-b]pyridin-2-yl)-7,8-dimethyl-[1,2,4]triazolo[1,5-a]pyridine] | 6.5 nM | 1.9 nM | 3030 nM
25 | Cc1c(-c2[nH]c3ccc(N4CC5(CN(C(=O)CN(C)C)C5)C4)nc3c2C(C)C)cn2ncnc2c1C [Example 743, 1-(6-(2-(7,8-dimethyl-[1,2,4]triazolo[1,5-a]pyridin-6-yl)-3-isopropyl-1H-pyrrolo[3,2-b]pyridin-5-yl)-2,6-diazaspiro[3.3]heptan-2-yl)-2-(dimethylamino)ethan-1-one] | 8.4 nM | 3.6 nM | 1880 nM
26 | CCN1CC2(C1)CN(c1ccc3[nH]c(-c4cn5ncnc5c(C)c4C)c(C(C)C)c3n1)C2 [Example 744, 6-(5-(6-ethyl-2,6-diazaspiro[3.3]heptan-2-yl)-3-isopropyl-1H-pyrrolo[3,2-b]pyridin-2-yl)-7,8-dimethyl-[1,2,4]triazolo[1,5-a]pyridine] | 7.1 nM | 2 nM | 3060 nM

Stronger by IC50 (human TLR8), values ahead:

Row | IC50 (human TLR8) | IC50 (human TLR7) | IC50 (human TLR9) | SMILES
27 | 3.2 nM | 2 nM | 4660 nM | COc1cc(-c2[nH]c3ccc(C4CCC(NC5CCOCC5)C4)nc3c2C(C)C)cn2ncnc12 (stereo not drawn) [Example 710]
28 | 2.9 nM | 2 nM | 1700 nM | COc1cc(-c2[nH]c3ccc(C4CCC(NCC5(C)COC5)C4)nc3c2C(C)C)cn2ncnc12 (stereo not drawn) [Example 711]
29 | 3.6 nM | 9.6 nM | 6210 nM | COc1cc(-c2[nH]c3ccc(C4CCC(NCC5(C)COC5)C4)nc3c2C(C)C)cn2ncnc12 (stereo not drawn) [Example 718]
30 | 0.53 nM | 0.41 nM | 982 nM | COc1cc(-c2[nH]c3ccc(C4CCC(NC5CCOCC5)C4)nc3c2C(C)C)cn2ncnc12 (stereo not drawn) [Example 721]
31 | 2.4 nM | 0.99 nM | 4390 nM | COc1cc(-c2[nH]c3ccc(C4CCC(NC(C)C)C4)nc3c2C(C)C)cn2ncnc12 (stereo not drawn) [Example 723]
32 | 2 nM | 0.63 nM | 2190 nM | COc1cc(-c2[nH]c3ccc(C4CCC(NC(C)C5CC5)C4)nc3c2C(C)C)cn2ncnc12 (stereo not drawn) [Example 724]
33 | 1.9 nM | 0.62 nM | 2060 nM | CNC(=O)CNC1CCC(c2ccc3[nH]c(-c4cc(OC)c5ncnn5c4)c(C(C)C)c3n2)C1 (stereo not drawn) [Example 725]
34 | 3.2 nM | 3.6 nM | 3350 nM | COc1cc(-c2[nH]c3ccc(C4CCC(NC5CCOCC5)C4)nc3c2C(C)C)cn2ncnc12 (stereo not drawn) [Example 727]
35 | 0.67 nM | 0.74 nM | 3540 nM | COc1cc(-c2[nH]c3ccc(C4CCC(NCC5(C)COC5)C4)nc3c2C(C)C)cn2ncnc12 (stereo not drawn) [Example 728]
36 | 1.3 nM | 1.1 nM | 1940 nM | COc1cc(-c2[nH]c3ccc(C4CCC(NC5CCOC(C)(C)C5)C4)nc3c2C(C)C)cn2ncnc12 (stereo not drawn) [Example 729]
37 | 0.55 nM | 0.59 nM | 7770 nM | Cc1c(-c2[nH]c3ccc(N4C[C@@H](C)NC[C@@H]4C)nc3c2C(C)C)cn2ncnc2c1C [Example 737, 6-(5-((2S,5R)-2,5-dimethylpiperazin-1-yl)-3-isopropyl-1H-pyrrolo[3,2-b]pyridin-2-yl)-7,8-dimethyl-[1,2,4]triazolo[1,5-a]pyridine]
38 | 0.89 nM | 0.46 nM | 6230 nM | Cc1c(-c2[nH]c3ccc(N4C[C@@H](C)N(C(=O)CN5CCCC5)C[C@@H]4C)nc3c2C(C)C)cn2ncnc2c1C [Example 738, 1-((2R,5S)-4-(2-(7,8-dimethyl-[1,2,4]triazolo[1,5-a]pyridin-6-yl)-3-isopropyl-1H-pyrrolo[3,2-b]pyridin-5-yl)-2,5-dimethylpiperazin-1-yl)-2-(pyrrolidin-1-yl)ethan-1-one]
39 | 1.6 nM | 0.85 nM | 5320 nM | Cc1c(-c2[nH]c3ccc(N4C[C@@H](C)N(C(=O)CCN5CCCC5)C[C@@H]4C)nc3c2C(C)C)cn2ncnc2c1C [Example 739, 1-((2R,5S)-4-(2-(7,8-dimethyl-[1,2,4]triazolo[1,5-a]pyridin-6-yl)-3-isopropyl-1H-pyrrolo[3,2-b]pyridin-5-yl)-2,5-dimethylpiperazin-1-yl)-3-(pyrrolidin-1-yl)propan-1-one]
40 | 5.1 nM | 2.2 nM | 623 nM | Cc1c(-c2[nH]c3ccc(N4CC5(CNC5)C4)nc3c2C(C)C)cn2ncnc2c1C [Example 740, 6-(3-isopropyl-5-(2,6-diazaspiro[3.3]heptan-2-yl)-1H-pyrrolo[3,2-b]pyridin-2-yl)-7,8-dimethyl-[1,2,4]triazolo[1,5-a]pyridine]
41 | 3.1 nM | 2.9 nM | 4580 nM | Cc1c(-c2[nH]c3ccc(N4CC5(CN(CC(=O)N(C)C)C5)C4)nc3c2C(C)C)cn2ncnc2c1C [Example 742, 2-(6-(2-(7,8-dimethyl-[1,2,4]triazolo[1,5-a]pyridin-6-yl)-3-isopropyl-1H-pyrrolo[3,2-b]pyridin-5-yl)-2,6-diazaspiro[3.3]heptan-2-yl)-N,N-dimethylacetamide]
